Target: T1, rat CB-1 receptor (Rattus norvegicus, UniProt P20272)
T1 construct: The tissue obtained from the brain of SD rats was homogenized; from tissue; host or cells: SD rat brain membrane homogenate
Assay: rat cannabinoid-1 receptor (CB1R) binding affinity assay
Conditions: not given
Method: The tissue obtained from the brain of SD rats was homogenized with a Dounce homogenate system in TME(50 mM Tris, 3 mM MgCl2 and 1 mM EDTA, pH 7.4) at 4° C., and the homogenate was centrifuged at 48,000 g for 30 min. at 4° C. The pellet was resuspended in 5 ml of TME and the suspension was divided into aliquots and stored at −70° C. until its use in the following assay.
The tissue concentrations were determined by Bradford protein analysis, and 148 μl of brain tissue of the required concentration was added to the plate. The plate was covered and placed in a 30° C. incubator for 60 min, and then transformed on GF/B filtermat pretreated in polyethylenimine (PEI) using a cell harvester. Each filter was washed five times and dried at 60° C. for 1 hr. Then, the degree of radioactivity retained by the filter was measured using Wallac Microbeta™ (PerkinElmer Life Sciences, Inc., Massachusetts, U.S.A.) and the activity of the compound for inhibiting CB1 receptor was determined therefrom.

T1 sequence (P20272 whole entry): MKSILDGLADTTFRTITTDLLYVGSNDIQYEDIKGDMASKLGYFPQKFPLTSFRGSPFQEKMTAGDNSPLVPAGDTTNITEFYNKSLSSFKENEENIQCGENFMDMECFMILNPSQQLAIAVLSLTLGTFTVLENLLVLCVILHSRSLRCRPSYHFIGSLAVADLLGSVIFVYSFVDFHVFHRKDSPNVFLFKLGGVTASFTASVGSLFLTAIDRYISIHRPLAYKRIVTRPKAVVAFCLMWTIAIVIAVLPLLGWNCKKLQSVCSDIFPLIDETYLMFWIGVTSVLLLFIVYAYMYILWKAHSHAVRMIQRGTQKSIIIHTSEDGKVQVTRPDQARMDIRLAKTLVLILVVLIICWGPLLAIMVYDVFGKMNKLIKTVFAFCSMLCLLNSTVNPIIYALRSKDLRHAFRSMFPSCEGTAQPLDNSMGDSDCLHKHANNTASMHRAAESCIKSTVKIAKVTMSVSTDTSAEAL

Structure (SMILES)	IC50 [nM]
CSc1c(-c2nnc(C3(C(F)(F)F)CCC3)s2)nn(-c2ccc(Cl)cc2Cl)c1-c1ccc(Cl)cc1 [Example 23, 2-(5-(4-chlorophenyl)-1-(2,4-dichlorophenyl)-4-(methylthio)-1H-pyrazol-3-yl)-5-(1-(trifluoromethyl)cyclobutyl)-1,3,4-thiadiazole]	7.31
CSc1c(-c2nnc(C3(c4ccc(Cl)cc4)CC3)s2)nn(-c2ccc(Cl)cc2Cl)c1-c1ccc(Cl)cc1 [Example 24, 2-(5-(4-chlorophenyl)-1-(2,4-dichlorophenyl)-4-(methylthio)-1H-pyrazol-3-yl)-5-(1-(4-chlorophenyl)cyclopropyl)-1,3,4-thiadiazole]	6.66
CSc1c(-c2nnc(C3(C(F)(F)F)CCC3)s2)nn(-c2ccccc2Cl)c1-c1ccc(Br)cc1 [Example 35, 2-(5-(4-bromophenyl)-1-(2-chlorophenyl)-4-(methylthio)-1H-pyrazol-3-yl)-5-(1-(trifluoromethyl)cyclobutyl)-1,3,4-thiadiazole]	7.77

Same assay, conditions: [3H]CP-55940 radioligand, SD rat brain tissue homogenate, 30° C., 60 min; read-out: IC50

Structure (SMILES)	IC50 [nM]
CSc1c(-c2nnc(C3(C(F)(F)F)CC3)s2)nn(-c2ccc(Cl)cc2Cl)c1-c1ccc(Br)cc1 [Example 30, 2-(5-(4-bromophenyl)-1-(2,4-dichlorophenyl)-4-(methylthio)-1H-pyrazol-3-yl)-5-(1-(trifluoromethyl)cyclopropyl)-1,3,4-thiadiazole]	14.8
CSc1c(-c2nnc(C3(C(F)(F)F)CC3)s2)nn(-c2ccccc2Cl)c1-c1ccc(Br)cc1 [Example 34, 2-(5-(4-bromophenyl)-1-(2-chlorophenyl)-4-(methylthio)-1H-pyrazol-3-yl)-5-(1-(trifluoromethyl)cyclopropyl)-1,3,4-thiadiazole]	17.1
C[S+]([O-])c1c(-c2nnc(C(C)(C)C)o2)nn(-c2ccc(Cl)cc2Cl)c1-c1ccc(Cl)cc1 (stereo not shown) [Example 41, 2-tert-butyl-5-(5-(4-chlorophenyl)-1-(2,4-dichlorophenyl)-4-(methylsulfinyl)-1H-pyrazol-3-yl)-1,3,4-oxadiazole]	30.4
C[S+]([O-])c1c(-c2nnc(C3(C(F)(F)F)CC3)o2)nn(-c2ccc(Cl)cc2Cl)c1-c1ccc(Cl)cc1 (stereo not shown) [Example 42, 2-(5-(4-chlorophenyl)-1-(2,4-dichlorophenyl)-4-(methylsulfinyl)-1H-pyrazol-3-yl)-5-(1-(trifluoromethyl)cyclopropyl)-1,3,4-oxadiazole]	24.6
C[S+]([O-])c1c(-c2nnc(C(C)(C)C)o2)nn(-c2ccccc2Cl)c1-c1ccc(Br)cc1 (stereo not shown) [Example 53, 2-(5-(4-bromophenyl)-1-(2-chlorophenyl)-4-(methylsulfinyl)-1H-pyrazol-3-yl)-5-tert-butyl-1,3,4-oxadiazole]	15.6
C[S+]([O-])c1c(-c2nnc(C(C)(C)C)s2)nn(-c2ccc(Cl)cc2Cl)c1-c1ccc(Cl)cc1 (stereo not shown) [Example 60, 2-tert-butyl-5-(5-(4-chlorophenyl)-1-(2,4-dichlorophenyl)-4-(methylsulfinyl)-1H-pyrazol-3-yl)-1,3,4-thiadiazole]	19.1
CC(C)(C)c1nnc(-c2nn(-c3ccc(Cl)cc3Cl)c(-c3ccc(Cl)cc3)c2S(C)(=O)=O)o1 [Example 80, 2-tert-butyl-5-(5-(4-chlorophenyl)-1-(2,4-dichlorophenyl)-4-(methylsulfonyl)-1H-pyrazol-3-yl)-1,3,4-oxadiazole]	15.2

Results, then the molecule that gave them:

IC50 [nM]	Structure (SMILES)
5.19	CSc1c(-c2nnc(C(C)(C)C)s2)nn(-c2ccc(Cl)cc2Cl)c1-c1ccc(Cl)cc1 [Example 21, 2-tert-butyl-5-(5-(4-chlorophenyl)-1-(2,4-dichlorophenyl)-4-(methylthio)-1H-pyrazol-3-yl)-1,3,4-thiadiazole]
10.9	CSc1c(-c2nnc(C3(C(F)(F)F)CC3)s2)nn(-c2ccc(Cl)cc2Cl)c1-c1ccc(Cl)cc1 [Example 22, 2-(5-(4-chlorophenyl)-1-(2,4-dichlorophenyl)-4-(methylthio)-1H-pyrazol-3-yl)-5-(1-(trifluoromethyl)cyclopropyl)-1,3,4-thiadiazole]
5.7	CSc1c(-c2nnc(C(C)(C)C)s2)nn(-c2ccccc2Cl)c1-c1ccc(Br)cc1 [Example 33, 2-(5-(4-bromophenyl)-1-(2-chlorophenyl)-4-(methylthio)-1H-pyrazol-3-yl)-5-tert-butyl-1,3,4-thiadiazole]
8.92	C[S+]([O-])c1c(-c2nnc(C3(C(F)(F)F)CCC3)o2)nn(-c2ccc(Cl)cc2Cl)c1-c1ccc(Cl)cc1 (stereo not shown) [Example 43, 2-(5-(4-chlorophenyl)-1-(2,4-dichlorophenyl)-4-(methylsulfinyl)-1H-pyrazol-3-yl)-5-(1-(trifluoromethyl)cyclobutyl)-1,3,4-oxadiazole]
6.51	C[S+]([O-])c1c(-c2nnc(C3(C(F)(F)F)CCC3)o2)nn(-c2ccccc2Cl)c1-c1ccc(Br)cc1 (stereo not shown) [Example 55, 2-(5-(4-bromophenyl)-1-(2-chlorophenyl)-4-(methylsulfinyl)-1H-pyrazol-3-yl)-5-(1-(trifluoromethyl)cyclobutyl)-1,3,4-oxadiazole]
11.3	C[S+]([O-])c1c(-c2nnc(C3(C(F)(F)F)CC3)s2)nn(-c2ccc(Cl)cc2Cl)c1-c1ccc(Cl)cc1 (stereo not shown) [Example 61, 2-(5-(4-chlorophenyl)-1-(2,4-dichlorophenyl)-4-(methylsulfinyl)-1H-pyrazol-3-yl)-5-(1-(trifluoromethyl)cyclopropyl)-1,3,4-thiadiazole]
4.12	C[S+]([O-])c1c(-c2nnc(C3(C(F)(F)F)CCC3)s2)nn(-c2ccc(Cl)cc2Cl)c1-c1ccc(Cl)cc1 (stereo not shown) [Example 62, 2-(5-(4-chlorophenyl)-1-(2,4-dichlorophenyl)-4-(methylsulfinyl)-1H-pyrazol-3-yl)-5-(1-(trifluoromethyl)cyclobutyl)-1,3,4-thiadiazole]
11.8	C[S+]([O-])c1c(-c2nnc(C3(c4ccc(Cl)cc4)CC3)s2)nn(-c2ccc(Cl)cc2Cl)c1-c1ccc(Cl)cc1 (stereo not shown) [Example 63, 2-(5-(4-chlorophenyl)-1-(2,4-dichlorophenyl)-4-(methylsulfinyl)-1H-pyrazol-3-yl)-5-(1-(4-chlorophenyl)cyclopropyl)-1,3,4-thiadiazole]
3.4	C[S+]([O-])c1c(-c2nnc(C3(C(F)(F)F)CCC3)s2)nn(-c2ccccc2Cl)c1-c1ccc(Cl)cc1 (stereo not shown) [Example 66, 2-(1-(2-chlorophenyl)-5-(4-chlorophenyl)-4-(methylsulfinyl)-1H-pyrazol-3-yl)-5-(1-(trifluoromethyl)cyclobutyl)-1,3,4-thiadiazole]
7.97	C[S+]([O-])c1c(-c2nnc(C(C)(C)C)s2)nn(-c2ccccc2Cl)c1-c1ccc(Br)cc1 (stereo not shown) [Example 72, 2-(5-(4-bromophenyl)-1-(2-chlorophenyl)-4-(methylsulfinyl)-1H-pyrazol-3-yl)-5-tert-butyl-1,3,4-thiadiazole]
6.08	C[S+]([O-])c1c(-c2nnc(C3(C(F)(F)F)CC3)s2)nn(-c2ccccc2Cl)c1-c1ccc(Br)cc1 (stereo not shown) [Example 73, 2-(5-(4-bromophenyl)-1-(2-chlorophenyl)-4-(methylsulfinyl)-1H-pyrazol-3-yl)-5-(1-(trifluoromethyl)cyclopropyl)-1,3,4-thiadiazole]
2.32	C[S+]([O-])c1c(-c2nnc(C3(C(F)(F)F)CCC3)s2)nn(-c2ccccc2Cl)c1-c1ccc(Br)cc1 (stereo not shown) [Example 74, 2-(5-(4-bromophenyl)-1-(2-chlorophenyl)-4-(methylsulfinyl)-1H-pyrazol-3-yl)-5-(1-(trifluoromethyl)cyclobutyl)-1,3,4-thiadiazole]

Source: patent US8309584B2, “Sulfur containing pyrazole-heterocycle derivatives as cannabinoid CB1 receptor antagonists” (Green Cross Corporation, priority 2008, dated 2012)
